# In ChEMBL document CHEMBL1201862, “PubChem BioAssay data set” (2004):
#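 Protocol summary: plate cells (96-well), add compound at 5 concentrations, incubate 48 h, interpolate endpoints linearly. GI50 marks 50% less growth.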 The source made the active and inactive calls. No stated cut-off is given here; in the data, active = GI50 up to about 1.1 µM and inactive = higher.
# Tests used:
# Experiment in all cases: NCI anticancer screen, dose series, 48 h
# [1] = tested on: COLO 205
# [2] = tested on: SR
# [3] = tested on: SK-MEL-5
# [4] = tested on: SNB-19
# [5] = tested on: UACC-62
# [6] = tested on: Malme-3M
# [7] = tested on: HCT-116
# [8] = tested on: MDA-N
# [9] = tested on: HL-60
# [10] = tested on: A549
# [11] = tested on: SK-MEL-28
# [12] = tested on: OVCAR-3
# [13] = tested on: MDA-MB-231
# [14] = tested on: MDA-MB-435
# [15] = tested on: RXF 393
# [16] = tested on: OVCAR-8
# [17] = tested on: TK-10
# [18] = tested on: RPMI-8226
# [19] = tested on: LOX IMVI
# [20] = tested on: EKVX
# [21] = tested on: SF-295
# [22] = tested on: HOP-92
# [23] = tested on: BT-549
# [24] = tested on: SNB-75
# [25] = tested on: SF-268
# [26] = tested on: SW-620
# [27] = tested on: HCC 2998
# [28] = tested on: T47D
# [29] = tested on: UO-31
# [30] = tested on: Hs-578T
# [31] = tested on: PC-3
# [32] = tested on: A498
# [33] = tested on: OVCAR-5
# [34] = tested on: OVCAR-4
# [35] = tested on: SF-539
# [36] = tested on: HT-29
# [37] = tested on: CAKI-1
# [38] = tested on: KM12
# [39] = tested on: ACHN
# [40] = tested on: NCI/ADR-RES
# [41] = tested on: NCI-H522
# [42] = tested on: HCT-15
# [43] = tested on: HOP-62
# [44] = tested on: M14
# [45] = tested on: DU-145
# [46] = tested on: NCI-H460
# [47] = tested on: SN12C
# [48] = tested on: MOLT-4
# [49] = tested on: NCI-H23
# [50] = tested on: SK-OV-3
# [51] = tested on: CCRF-CEM
# [52] = tested on: UACC-257
# [53] = tested on: SK-MEL-2
# [54] = tested on: IGROV-1
# [55] = tested on: MCF7
# [56] = tested on: 786-0
# [57] = tested on: U-251
# [58] = tested on: NCI-H226
# [59] = tested on: K562
smiles,measurement,setting,value
CC(NNC(=O)c1cc[n+]([BH2-]C#N)cc1)c1cccc(C(F)(F)F)c1 (stereo not drawn),GI50,[1],> 100 µM (inactive)
same,GI50,[2],52.1 µM (inactive)
same,GI50,[3],72.1 µM (inactive)
same,GI50,[4],> 100 µM (inactive)
same,GI50,[5],73.3 µM (inactive)
same,GI50,[6],> 100 µM (inactive)
same,GI50,[7],82 µM (inactive)
same,GI50,[8],81.3 µM (inactive)
same,GI50,[9],34.5 µM (inactive)
same,GI50,[10],86.9 µM (inactive)
same,GI50,[11],> 100 µM (inactive)
same,GI50,[12],89.3 µM (inactive)
same,GI50,[13],> 100 µM (inactive)
same,GI50,[14],> 100 µM (inactive)
same,GI50,[15],60.1 µM (inactive)
same,GI50,[16],> 100 µM (inactive)
same,GI50,[17],> 100 µM (inactive)
same,GI50,[18],65.2 µM (inactive)
same,GI50,[19],71.6 µM (inactive)
same,GI50,[20],> 100 µM (inactive)
same,GI50,[21],50.2 µM (inactive)
same,GI50,[22],> 100 µM (inactive)
same,GI50,[23],> 100 µM (inactive)
same,GI50,[24],> 100 µM (inactive)
same,GI50,[25],> 100 µM (inactive)
same,GI50,[26],> 100 µM (inactive)
same,GI50,[27],> 100 µM (inactive)
same,GI50,[28],40.2 µM (inactive)
same,GI50,[29],42 µM (inactive)
same,GI50,[30],64.4 µM (inactive)
same,GI50,[31],44 µM (inactive)
same,GI50,[32],> 100 µM (inactive)
same,GI50,[33],> 100 µM (inactive)
same,GI50,[34],> 100 µM (inactive)
same,GI50,[35],> 100 µM (inactive)
same,GI50,[36],82.2 µM (inactive)
same,GI50,[37],> 100 µM (inactive)
same,GI50,[38],> 100 µM (inactive)
same,GI50,[39],> 100 µM (inactive)
same,GI50,[40],> 100 µM (inactive)
same,GI50,[41],4.55 µM (inactive)
same,GI50,[42],68.5 µM
same,GI50,[43],> 100 µM (inactive)
same,GI50,[44],37.9 µM (inactive)
same,GI50,[45],> 100 µM (inactive)
same,GI50,[46],77.8 µM (inactive)
same,GI50,[47],> 100 µM (inactive)
same,GI50,[48],46.7 µM (inactive)
same,GI50,[49],27.4 µM (inactive)
same,GI50,[50],26.7 µM (inactive)
same,GI50,[51],> 100 µM (inactive)
same,GI50,[52],68.2 µM (inactive)
same,GI50,[53],> 100 µM (inactive)
same,GI50,[54],> 100 µM (inactive)
same,GI50,[55],56.2 µM (inactive)
same,GI50,[56],> 100 µM (inactive)
same,GI50,[57],88.7 µM (inactive)
same,GI50,[58],> 100 µM (inactive)
same,GI50,[59],47.8 µM (inactive)
O=C(O)CCC(=O)C(=O)O [ALPHA-KETOGLUTARIC ACID],GI50,[1],> 100 µM (inactive)
same,GI50,[2],> 100 µM (inactive)
same,GI50,[3],> 100 µM (inactive)
same,GI50,[4],> 100 µM (inactive)
same,GI50,[5],> 100 µM (inactive)
same,GI50,[6],> 100 µM (inactive)
same,GI50,[7],> 100 µM (inactive)
same,GI50,[8],> 100 µM (inactive)
same,GI50,[9],> 100 µM (inactive)
same,GI50,[10],> 100 µM (inactive)
same,GI50,[11],> 100 µM (inactive)
same,GI50,[12],> 100 µM (inactive)
same,GI50,[13],> 100 µM (inactive)
same,GI50,[14],> 100 µM (inactive)
same,GI50,[15],> 100 µM (inactive)
same,GI50,[16],> 100 µM (inactive)
same,GI50,[17],> 100 µM (inactive)
same,GI50,[18],> 100 µM (inactive)
same,GI50,[19],> 100 µM (inactive)
same,GI50,[20],> 100 µM (inactive)
same,GI50,[21],> 100 µM (inactive)
same,GI50,[22],> 100 µM (inactive)
same,GI50,[23],> 100 µM (inactive)
same,GI50,[24],> 100 µM (inactive)
same,GI50,[25],> 100 µM (inactive)
same,GI50,[26],> 100 µM (inactive)
same,GI50,[27],> 100 µM (inactive)
same,GI50,[28],> 100 µM (inactive)
same,GI50,[29],> 100 µM (inactive)
same,GI50,[30],> 100 µM (inactive)
same,GI50,[31],> 100 µM (inactive)
same,GI50,[32],> 100 µM (inactive)
same,GI50,[33],> 100 µM (inactive)
same,GI50,[34],> 100 µM (inactive)
same,GI50,[35],> 100 µM (inactive)
same,GI50,[36],> 100 µM (inactive)
same,GI50,[37],> 100 µM (inactive)
same,GI50,[38],> 100 µM (inactive)
same,GI50,[39],> 100 µM (inactive)
same,GI50,[40],> 100 µM (inactive)
same,GI50,[41],> 100 µM (inactive)
same,GI50,[42],> 100 µM
same,GI50,[43],> 100 µM (inactive)
same,GI50,[44],> 100 µM (inactive)
same,GI50,[45],> 100 µM (inactive)
same,GI50,[46],> 100 µM (inactive)
same,GI50,[47],> 100 µM (inactive)
same,GI50,[48],> 100 µM (inactive)
same,GI50,[49],> 100 µM (inactive)
same,GI50,[50],> 100 µM (inactive)
same,GI50,[51],> 100 µM (inactive)
same,GI50,[52],> 100 µM (inactive)
same,GI50,[53],> 100 µM (inactive)
same,GI50,[54],> 100 µM (inactive)
same,GI50,[55],> 100 µM (inactive)
same,GI50,[56],> 100 µM (inactive)
same,GI50,[57],> 100 µM (inactive)
same,GI50,[58],> 100 µM (inactive)
same,GI50,[59],> 100 µM (inactive)
